Columns and labels:
[1] = Singlet oxygen phosphorescence at 1270 nm, methanol, pulsed laser 532 nm; type: physicochemical; settings: near 5 μM, equi-absorbant at 532 nm, excited at 532 nm
Method: The photosensitizers, e. g., HPPH (control), 2 and 4 were individually dissolved in methanol (concentration: 5 μM) in polystyrene cuvettes and excited at 532 nm using a pulsed laser. Phosphorescence of singlet oxygen was detected at 1270 nm.
Before evaluating the imaging and photosensitizing potential of the chlorin 4 with extended ring system, its singlet oxygen producing ability was compared with the related chlorin 2. In brief, both compounds were individually dissolved in methanol in equi-absorbant (at 532 nm) concentrations near 5 μM and excited at 532 nm using a pulsed laser. The phosphorescence of singlet oxygen was detected at 1270 nm. From the results summarized in FIG. 4, it can be seen that compared to chlorin 2 with a five-member isocyclic ring, the related analog 4 with an extended ring system had remarkably lower singlet oxygen producing ability. Singlet oxygen quantum yields were φ=0.29 and φ=0.02 respectively, compared to HPPH φ=0.45.

[2] = Absorbance (UV-VIS) in methanol; type: physicochemical; settings: ε665 for 2 (peak 660 nm), ε785 for 4 (peak 785 nm)
Method: Absorbance of 2 and 4 was measured using different concentrations in methanol on UV-VIS and indicates far-red peaks at 660 nm and 785 nm, with extinction coefficients ε665=47,500 L·mol^−1 cm^−1 and ε785=18,100 L·mol^−1 cm^−1 respectively.
Chemistry Methods: All reactions were carried out in heat gun-dried glassware under an atmosphere of nitrogen and magnetic stirring. Thin layer chromatography (TLC) was done on pre-coated silica gel sheets (layer thickness 0.2 mm). Column chromatography was performed either using silica gel 60 (70-230 mesh) or neutral alumina grade III. In some cases preparative TLC was used for the purification of compounds. Purity of the compounds was ascertained by TLC and HPLC analysis. All compounds including the intermediates were >95% pure. UV-visible spectra were recorded on FT UV-visible spectrophotometer using methanol as a solvent. Mass spectrometry analyses were performed at the Mass Spectrometry Facility, University at Buffalo, N.Y. Compounds 1 and 2 were synthesized by following the methodologies previously described.

[3] = system: Colon26 tumors; test: In vivo PDT efficacy; design: species or system BALB/c mice; settings: dose 1 μmol/kg; light 135 J/cm^2, 75 mW/cm^2 at 24 h postinjection; 5 mice/group
Method: Tumors were exposed to light (135 J/cm^2, 75 mW/cm^2) at 24 h (hour) postinjection (optimal time for tumor uptake for both the PSs).
For determining the in vivo imaging and therapeutic potential of 2, BALB/c mice (5-10 mice/group) bearing Colon26 tumors were used. In brief, 1×10^6 Colon26 cells were injected in mice subcutaneously. The tumors were left to grow for 1 week until they achieve the desired size (3-5 mm) for treatment. The photosensitizer was injected intravenously following the animal protocol approved by RPCI IACUC committee. Irradiance occurred 24 hours after i. v. injection; light dose was 135 J/cm^2 at a dose rate of 75 mW/cm^2 using the near-IR wavelengths of interest: 665 nm or 789 nm.
Two axes of the tumor (L, longest axis; W, shortest axis) were measured in millimeters with the aid of a Vernier caliper. Tumor weight (mg) was estimated as a formula: tumor weight=1/2 (L×W2). Tumor measurements were taken daily for the first 10 days and at least three tine a week for the first 4 weeks of post therapy and twice a week thereafter. Endpoints were 400 mm^3 tumor volume or 60 days.

[4] = Photobleaching in 17% bovine calf serum; type: physicochemical; settings: 660 nm
Method: Photobleaching was performed in quartz cuvettes on a 5 μM solution of 2 and a 25 μM solution of 4 in 17% BCS. The higher molarity was chosen to approximate the absorbance of 2 at 5 μM. A dye laser was used at dose rate 75 mW/cm^2, and excitation wavelength for 2 was 660 nm and for 4 was 785 nm.
In photodynamic therapy, photobleaching is the photochemical alteration of a chromophore or a fluorophore molecule such that could either permanently is unable to fluoresce or alter its fluorescence characteristics. This is caused by cleaving of the covalent bonds or non-specific reaction between the reactive oxygen species (e.g., singlet oxygen) and the molecule. These […] species formed by conversion of the molecular oxygen present in tumor to singlet oxygen by exposing the photosensitizer with light at an appropriate wavelength. The rate of photobleaching of the PS should depend (a) availability of oxygen, (b) photostability of PS and finally (c) the singlet oxygen (or other reactive oxygen species) producing ability of the PS.
To investigate the photobleaching characteristics of the photosensitizers, compounds 2 and 4 in equimolar concentrations (5 μM) were taken in quartz cuvettes in 17% bovine calf serum. Dye lasers with appropriate wavelength (2: 660 nm and 4: 785 nm) were used at a dose rate of 75 mW/cm^2. Both the compounds in formulated forms were irradiated with light and the absorption spectra at their long wavelength absorptions were measured with time. The decay in absorbance was plotted against the time of light exposure.

[5] = system: Colon26 cells; test: In vitro cytotoxicity (PDT) MTT assay; type: cell-based
Method: Drug concentrations were increased 10× (0.25 to 32.0 μM) and a significant cytotoxicity was observed only at high concentrations at the highest light dose.
Assessment of cell growth following treatment with compound solutions alone and after light exposure was determined by a colorimetric assay that measured the reduction of yellow 3-(4,5-dimethythiazol-2-yl)-2,5-diphenyl tetrazolium bromide (MTT) by mitochondrial succinate dehydrogenase.
Briefly cells were plated into 96 well plates, allowed to adhere to the plate and are treated with a range of compound concentrations for various lengths of time. The light source consisted of dye lasers (375; Spectra-Physics, Mt. View, Calif.) pumped by an argon-ion laser (either 171 or 2080; Spectra-Physics). The dye lasers were tuned to the appropriate wavelength for the compound being tested. Total light doses were ranged from 0.125 to 1.0 J/cm^2 at a fluence rate of 3.2 mW/cm^2. At 48 hours post PDT treatment, MTT was added. The solubilized formazan product was measured spectro-photometrically using a BIOTEK EL-800 plate reader. Data were processed using GEN5 software. A medium blank value was subtracted from all samples and Optical Density (O.D.) values of treated cells were divided by mean O.D. value of untreated cells for each light dose).
Colon26 cells were plated and allowed to adhere for 4 hours, then the photosensitizer was added and incubated at 37° C. for 24 hours. Plates were irradiated with 789 nm light from a dye laser at 3.2 mW/cm^2 for a total dose of 0.25 to 1.0 Joule/cm^2.

[6] = system: Colon26 tumors; test: In vivo whole body tumor fluorescence imaging (IVIS Spectrum); design: species or system BALB/c mice; settings: non-radioactive analogs, i.v., post-injection
Method: Before evaluating in vivo PDT efficacy of PS 4 by exposing the tumors with light, the time point for optimal tumor uptake of PS was determined by whole body fluorescence imaging of tumored mice at various time points after injecting the PS.
The multi-spectral imaging system, IVIS Spectrum (Perkin-Elmer) along with Living Image (image acquisition and analysis software) was used. IVIS Spectrum has the capability to use either trans-illumination (from the bottom) or epi-illumination (from the top) to illuminate in vivo fluorescent sources. […] Regions of interest (ROI) were defined for areas of compound accumulation (tumor, liver, skin) and total and average signal within the region were recorded. Fluorescent intensity is expressed as the total radiant efficiency ([p/s]/[μW/cm^2]. Results are expressed as mean total radiant efficiency of three mice±SD.

[7] = system: Colon26 tumors; test: PET imaging of 124I-analogs; settings: ethanol/PBS formulation, 25 μCi/mouse
Method: Compounds were resuspended in 10% ethanol saline, and ˜50 μCi were injected per mouse.
Final product was formulated in 10% ethanol in saline for injection in mice for PET imaging and biodistribution studies. Formulations noted as Pluronic® were formulated in 2% Pluronic® F-127 in saline. Mice were injected with 50 μCi (˜100 μL) for biodistribution, or 100 μCi (˜200 μL) for PET imaging.

[8] = system: Colon26 tumors; test: In vivo biodistribution of 124I-analogs; design: species or system BALB/c mice; settings: for organ distribution (in words): ethanol/PBS formulation, i.v., 24, 48, 72 hours
Method: From left to right, each group is 24 hours 2, 48 hours 2, 72 hours 2, 24 hours 6, 48 hours 6, and 72 hours 6.
The labeled product, 6, was collected and dried.

Compound: CCC1=C(C)c2cc3[nH]c(cc4nc(c5c6[nH]c(cc1n2)c(C)c6C(=O)C5)[C@@H](CCC(=O)OC)[C@@H]4C)c(C)c3C(C)OCc1cccc([124I])c1 (stereo partly shown) [Compound 2, methyl 3-[1′-(m-iodobenzyloxy)ethyl]-3-devinyl pyropheophorbide]
- Singlet oxygen quantum yield φ [1]: 0.29
- extinction coefficient at far-red absorbance peak [2]: 47,500 L·mol^−1 cm^−1
- tumor cure after PDT [3]: 80%
- photobleaching experimental endpoint reached ([4]; 5 μM in 17% BCS, 75 mW/cm^2): 20%
- fraction photobleached ([4]; 17% bovine calf serum, 5 μM, 75 mW/cm^2, by three hours): 80%
- in vitro cytotoxicity at 10× increased drug concentrations (in words) ([5]; 0.25 to 32.0 μM, significant cytotoxicity only at high concentrations at the highest light dose (FIG. 8B)): toxic effects only at high concentrations
- in vitro cytotoxicity (in words) ([5]; variable drug concentrations, fixed light dose 1.0 J/cm^2 (FIG. 8A)): light dose-dependent cytotoxicity
- time of optimal uptake in tumor (fluorescence imaging) [6]: 24 h

Compound: CCC1=C(C)c2cc3[nH]c(cc4nc(c5c6[nH]c(cc1n2)c(C)c6C(=O)C5)[C@@H](CCC(=O)OC)[C@@H]4C)c(C)c3C(C)OCc1cccc(I)c1 (stereo partly shown) [Compound 2a, 3-(1′-m-iodobenzyloxy) ethyl-3-devinyl-pyropheo phorbide-a methyl ester, reference compound]
- time of maximum tumor uptake (PET) [7]: 24 h
- organ distribution (in words) [8]: significantly high uptake in spleen

Compound: CCC1=C(C)c2cc3[nH]c(cc4nc(c5c6[nH]c(cc1n2)c(C)c6C=C(OC)C5=O)[C@@H](CCCC(=O)OC)[C@@H]4C)c(C)c3[C@H](C)OCc1cccc([124I])c1 [Compound 6, Methyl 3-[1′-(m-^124iodobenzyloxy)ethyl]-3-devinyl-13^3-keto-13^2methoxycyclohexene (verdin)]
- tumor uptake ([8]; BALB/c mice implanted with Colon26 tumors, i.v.): > 9 % of the injected dose
- organ distribution (in words) [8]: significantly higher uptake in tumor than other organs

Compound: HPPH
- Singlet oxygen quantum yield φ [1]: 0.45
